Assay results taken from US5939279A, “Inhibition of bacterial binding by high-mannose oligosaccharides” (priority 1997, dated 1999).

Assays:
[1] = system: Enterobacter cloacae; test: microbe, parasite or virus in culture; assay type: cell-based; conditions: for IC50: 1 h, read-out: 50% inhibition of binding; for inhibition of binding: even at 100 mM concentrations
Method: (§1) Bacterial adherence was measured as follows: confluent HT-29 cell monolayers, contained in 24 well plates, were washed two times with PBS. Various amounts of the labeled bacteria, all in the same final volume of buffer, were added to the monolayers and allowed to incubate at 37° C. for 1 hour, with intermittent agitation. At least three wells received each concentration of bacteria. At the end of the incubation, unbound bacteria were removed by aspiration, and the monolayers were washed at least 5 times with PBS. After this thorough washing, the HT-29 cells were released from each well with a trypsin-EDTA mixture and the cell suspension was placed in a scintillation vial. Each well was then washed with another 0.5 ml of water along with scraping with a plastic paddle to remove any firmly attached cells. This second wash was then added to the same vial that contained the first trypsin digest. Ten ml of scintillation fluid were added and radioactivity was determined as a measure of the number of bacteria bound.
A variety of simple sugars (D-mannose, D-galactose, D-fructose, L-fucose, D-GlcNAc, sialic acid) were tested at various concentrations to determine their ability to block the adhesion of Enterobacter cloacae to the HT-29 cells. In addition, p-nitrophenyl-α-D-mannoside and 4-methylumbelliferyl-α-D-mannoside and glycopeptides with various high-mannose or complex types of oligosaccharides were also tested as inhibitors. […] […] The plates were then incubated and harvested as described above in the adherence assay, and the amount of radioactivity bound to the cell monolayer was determined.

[2] = system: Escherichia coli; conditions: studies by Firon et al (8); cited from earlier work
[3] = system: HT-29 cells; test: Adhesion of E. cloacae to HT-29 cells grown in the presence of N-linked glycoprotein processing inhibitors; assay type: cell-based; conditions: for activation at 100 µg/mL: inhibitor 100 μg/ml; for Adhesion (cpm): average of three sets of experiments; for change in the amount of radioactive bacteria bound: text summary of Table II; for activation at 5 µg/mL: inhibitor 5 μg/ml; for activation at 25 µg/mL: inhibitor 25 μg/ml; for activation at 50 µg/mL: inhibitor 50 μg/ml; for activation at 10 µg/mL: inhibitor 10 μg/ml
Method: as §1
HT-29 cells were transferred at low density to multiwell plates, and grown in McCoy's medium containing different concentrations of various processing inhibitors. Thus, one 24-well plate was divided into 4 sections, each with 6 wells having the following components: castanospermine at 0, 5, 10, 25, 50 and 100 μg/ml; deoxymannojirimycin at 0, 5, 25, 50, 100 and 200 μg/ml; kifunensine at 0, 2, 5, 10, 25 and 50 μg/ml; swainsonine at 0, 1, 5, 10, 25 and 50 μg/ml. HT-29 cells were allowed to grow to confluency over a period of 4 to 5 days. Once the cells reached confluency, the media was removed by aspiration and the monolayers were washed with PBS. Each well was then challenged with the same number of radioactive bacteria to determine the extent of bacterial adhesion, as described above in the adhesion assay.

[4] = target: 35 kDa pili subunit (Enterobacter cloacae, UniProt Q9Z643); test: Modified Western blot: labeling of pili adhesive subunit by α-mannosylated-biotinylated-albumin; assay type: binding; conditions: 50 mM sugar in incubation; FIG. 5
Method: Modified Western blot using an α-mannosylated-biotinylated-albumin, followed by an avidin-horseradish peroxidase conjugate and then visualization with 4-chloro-napthol according to the manufacturer's directions; D. Reaction system as in C, but incubated in the presence of 50 mM α-D-glucose; E. Reaction system as in C and D, but incubated in the presence of 50 mM α-D-mannose.
Thus, purified pili were subjected to 12% SDS-PAGE, and the resulting protein bands were transferred to nitrocellulose membranes. After washing the membranes to remove SDS, and incubating them with PBS containing 5% bovine serum albumin, they were incubated for 2 hours at room temperature with a mannosylated-albumin that contained a biotin tag. Some incubations also contained 50 mM D-mannose or 50 mM D-glucose.

[5] = Homo sapiens, HT-29, percent relative to the control, read-out: Increase in adhesion (%)
[6] = inhibitor 5 μg/ml in culture medium
[7] = inhibitor 10 μg/ml in culture medium
[8] = inhibitor 25 μg/ml in culture medium
[9] = inhibitor 50 μg/ml in culture medium
[10] = inhibitor 100 μg/ml in culture medium

Chain of 35 kDa pili subunit (Q9Z643 entry or part of it): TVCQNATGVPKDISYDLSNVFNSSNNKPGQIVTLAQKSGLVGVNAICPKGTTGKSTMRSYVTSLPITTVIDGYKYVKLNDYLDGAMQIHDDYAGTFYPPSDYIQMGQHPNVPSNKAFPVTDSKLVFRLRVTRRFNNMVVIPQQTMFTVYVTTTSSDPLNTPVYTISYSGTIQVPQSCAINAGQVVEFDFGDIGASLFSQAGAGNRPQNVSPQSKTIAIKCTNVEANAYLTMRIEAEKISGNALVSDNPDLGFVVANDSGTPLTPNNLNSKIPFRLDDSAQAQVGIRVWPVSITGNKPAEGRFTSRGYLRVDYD

For `Cc1cc(=O)oc2cc(O[C@H]3O[C@H](CO)[C@@H](O)[C@H](O)[C@@H]3O)ccc12` [4-methylumbilliferyl-α-D-mannoside, 4-methylumbelliferyl-α-D-mannoside], the IC50 ([1]; Enterobacter cloacae) is listed as 10 µM, the inhibition at 100 µM ([1]; Enterobacter cloacae, read-out: inhibition of binding) is listed as 80 to 90% and the “inhibitor of Escherichia coli binding to epithelial cells, relative effectiveness” value [2] is listed as “even better then the p-nitrophenyl-derivative”.
With `O[C@H]1[C@H](O)[C@@H](O)CN2CC[C@H](O)[C@H]12` [Castanospermine] the activation at 100 µg/mL [3, 5] was 8%, the “Adhesion (cpm)” value [3, 6] was 12,410 cpm and the “Adhesion (cpm)” value [3, 7] was 13,787 cpm. The “Adhesion (cpm)” value [3, 8] was 13,973 cpm, the “Adhesion (cpm)” value [3, 9] was 13,626 cpm and the “Adhesion (cpm)” value [3, 10] was 14,943 cpm. For the same compound, the “change in the amount of radioactive bacteria bound” value [3] was “did not cause any significant change”.
For `O=C[C@H](O)[C@@H](O)[C@@H](O)[C@H](O)CO` [D-galactose], the inhibition of binding [1] was “did not inhibit binding”.
For `OC[C@H]1OC(O)[C@H](O)[C@@H](O)[C@@H]1O` (stereo partly drawn) [D-glucose], the inhibition of binding [1] was “did not inhibit binding”.
For `OC[C@H]1OC(O)[C@@H](O)[C@@H](O)[C@@H]1O` (stereo partly drawn) [D-mannose], the IC50 ([1]; Enterobacter cloacae) was 500 µM and the “labeling of the 35 kDa band by mannosylated-biotinylated-albumin” value [4] was “inhibited”.
For `OC[C@H]1NC[C@@H](O)[C@@H](O)[C@@H]1O` [Deoxymannojirimycin], the activation at 5 µg/mL [3, 5] was 36%, the activation at 25 µg/mL [3, 5] was 47% and the activation at 50 µg/mL [3, 5] was 49%. For the same compound, the activation at 100 µg/mL [3, 5] was 53%, the activation at 200 µg/mL ([3]; Homo sapiens, HT-29, inhibitor 200 μg/ml, percent relative to the control, read-out: Increase in adhesion (%)) was 50% and the “Adhesion (cpm)” value [3, 6] was 18,630 cpm. For the same compound, the “Adhesion (cpm)” value [3, 8] was 20,180 cpm, the “Adhesion (cpm)” value [3, 9] was 20,500 cpm and the “Adhesion (cpm)” value [3, 10] was 21,018 cpm. For the same compound, the “Adhesion (cpm)” value ([3]; inhibitor 200 μg/ml in culture medium) was 20,548 cpm.
`O=C1N[C@@H]2[C@@H](O)[C@@H](O)[C@H](O)[C@@H](CO)N2C1=O` [Kifunensine] gave an activation at 2 µg/mL ([3]; Homo sapiens, HT-29, inhibitor 2 μg/ml, percent relative to the control, read-out: Increase in adhesion (%)) of 42%, an activation at 5 µg/mL [3, 5] of 50% and an activation at 10 µg/mL [3, 5] of 43%. For the same compound, the activation at 25 µg/mL [3, 5] was 52%, the activation at 50 µg/mL [3, 5] was 75% and the “Adhesion (cpm)” value ([3]; inhibitor 2 μg/ml in culture medium) was 19,033 cpm. The “Adhesion (cpm)” value [3, 6] was 20,161 cpm, the “Adhesion (cpm)” value [3, 7] was 19,257 cpm and the “Adhesion (cpm)” value [3, 8] was 20,414 cpm. For the same compound, the “Adhesion (cpm)” value [3, 9] was 23,442 cpm.
With `C[C@H](O)[C@@H](O)[C@@H](O)[C@H](O)C=O` [L-fucose] the inhibition of binding [1] was “did not inhibit binding”.
For `CC(=O)N[C@H]1C(O)O[C@H](CO)[C@H](O)[C@@H]1O` (some centres unmarked) [N-acetylgalactosamine], the inhibition of binding [1] was “did not inhibit binding”.
With `CC(=O)N[C@H]1C(O)O[C@H](CO)[C@@H](O)[C@@H]1O` (some centres unmarked) [N-acetylglucosamine] the inhibition of binding [1] was “did not inhibit binding”.
With `O[C@H]1[C@H]2[C@H](O)CCCN2C[C@H]1O` [Swainsonine] the activation at 1 µg/mL ([3]; Homo sapiens, HT-29, inhibitor 1 μg/ml, percent relative to the control, read-out: Increase in adhesion (%)) was 10%, the activation at 5 µg/mL [3, 5] was 5% and the activation at 10 µg/mL [3, 5] was 11%. The activation at 50 µg/mL [3, 5] was 8%, the “Adhesion (cpm)” value ([3]; inhibitor 1 μg/ml in culture medium) was 15,219 cpm and the “Adhesion (cpm)” value [3, 6] was 14,577 cpm. For the same compound, the “Adhesion (cpm)” value [3, 7] was 15,275 cpm, the “Adhesion (cpm)” value [3, 8] was 13,857 cpm and the “Adhesion (cpm)” value [3, 9] was 14,965 cpm. For the same compound, the “change in the amount of radioactive bacteria bound” value [3] was “did not cause any change”.
In the case of `O=[N+]([O-])c1ccc(O[C@H]2O[C@H](CO)[C@@H](O)[C@H](O)[C@@H]2O)cc1` [p-nitrophenyl-α-D-mannoside], the reversal of binding ([1]; 0.5 mM added to the monolayers after the bacteria had bound) is given as “reversed”, the IC50 ([1]; Enterobacter cloacae) is given as 20 µM and the “inhibitor of Escherichia coli binding to epithelial cells, relative effectiveness” value [2] is given as “considerably better as an inhibitor than was α-methylmannoside”.
For `CC(=O)N[C@H]1[C@H]([C@H](O)[C@H](O)CO)OC(O)(C(=O)O)C[C@@H]1O` (some centres unmarked) [sialic acid], the inhibition of binding [1] was “did not inhibit binding”.
In the case of `CO[C@H]1O[C@H](CO)[C@@H](O)[C@H](O)[C@@H]1O` [α-methylmannoside], the reversal of binding ([1]; 5 mM added to the monolayers after the bacteria had bound) is reported as “reversed” and the IC50 ([1]; Enterobacter cloacae) is reported as 150 µM.
